The melting point is the temperature of the solid-liquid transition.

Turning to `COc1cc2c(cc1OC)-c1c(C#N)c(-c3cccc4ccccc34)c(C)n1CC2` [Example 22, 8,9-Dimethoxy-3-methyl-2-naphthalen-1-yl-5,6-dihydro-pyrrolo[2,1-a]isoquinoline-1-carbonitrile], the melting point fell in the range of 226 to 229 °C. For `COC(=O)c1c(-c2cc(C)c(O)c(C)c2)c(C)n2c1-c1cc(OC)c(OC)cc1CC2C` (centres unmarked) [Example 65, 2-(4-Hydroxy-3,5-dimethyl-phenyl)-8,9-dimethoxy-3,5-dimethyl-5,6-dihydro-pyrrolo[2,1-a]isoquinoline-1-carboxylic acid methyl ester], the melting point lay within 177 to 179 °C. As for `COc1cc2c(cc1OC)-c1c(C#N)c(-c3ccnc(C)c3)c(C)n1C(C)C2` (centres unmarked) [Example 45, 8,9-Dimethoxy-3,5-dimethyl-2-(2-methyl-pyridin-4-yl)-5,6-dihydro-pyrrolo[2,1-a]isoquinoline-1-carbonitrile], the melting point was in the range of 187 to 189 °C. Turning to `COc1cc2c(cc1OC)-c1c(C)c(-c3cc(C)c(O)c(C)c3)c(C)n1CC2` [Example 68, 4-(8,9-Dimethoxy-1,3-dimethyl-5,6-dihydro-pyrrolo[2,1-a]isoquinolin-2-yl)-2,6-dimethyl-phenol], the melting point fell in the range of 183 to 185 °C. Molecule `CCOc1cc2c(cc1OC)-c1c(C#N)c(-c3cc(C)c(O)c(C)c3)c(C)n1C(C)C2` (centres unmarked) [Example 53, 8-Ethoxy-2-(4-hydroxy-3,5-dimethyl-phenyl)-9-methoxy-3,5-dimethyl-5,6-dihydro-pyrrolo[2,1-a]isoquinoline-1-carbonitrile] registered a melting point of 232 to 234 °C. `COc1cc2c(cc1OC)-c1c(C#N)c(-c3cn(S(C)(=O)=O)c4ccccc34)c(C)n1C(C)C2` (centres unmarked) [Example 40, 2-(1-Methanesulfonyl-1H-indol-3-yl)-8,9-dimethoxy-3,5-dimethyl-5,6-dihydro-pyrrolo[2,1-a]isoquinoline-1-carbonitrile] displayed a melting point of 219 to 221 °C. Turning to `COC(=O)CCc1c(-c2ccncc2)c(C#N)c2n1CCc1cc(OC)c(OC)cc1-2` [Example 29, 3-(1-Cyano-8,9-dimethoxy-2-pyridin-4-yl-5,6-dihydro-pyrrolo[2,1-a]isoquinolin-3-yl)-propionic acid methyl ester], the melting point was in the range of 191 to 193 °C. Take `CCOC(=O)c1c(-c2cccc(N(C)C)c2)c(C)n2c1-c1cc(OC)c(OC)cc1CC2(C)C` [Example 4, 2-(3-Dimethylamino-phenyl)-8,9-dimethoxy-3,5,5-trimethyl-5,6-dihydro-pyrrolo[2,1-a]isoquinoline-1-carboxylic acid ethyl ester]: the melting point is 101 to 102 °C.

These data come from patent publication US20060148840A1, “Pyrrolodihydroisoquinolines as pde10 inhibitors” (Altana Pharma AG, priority 2003, published 2006).
